Measured values from patent publication US9120786B2, “Triazine carboxamides as sodium channel blockers” (priority 2013, dated 2015).

biological target: human Nav1.7 (Homo sapiens (Human), UniProt Q15858); assay: FLIPR sodium dye assay (CoroNa Green) for sodium channel blocking activity in recombinant Nav1.7/HEK293 cells; type: cell-based
Sequence (Q15858 with tags, fused parts or gaps limits assumed): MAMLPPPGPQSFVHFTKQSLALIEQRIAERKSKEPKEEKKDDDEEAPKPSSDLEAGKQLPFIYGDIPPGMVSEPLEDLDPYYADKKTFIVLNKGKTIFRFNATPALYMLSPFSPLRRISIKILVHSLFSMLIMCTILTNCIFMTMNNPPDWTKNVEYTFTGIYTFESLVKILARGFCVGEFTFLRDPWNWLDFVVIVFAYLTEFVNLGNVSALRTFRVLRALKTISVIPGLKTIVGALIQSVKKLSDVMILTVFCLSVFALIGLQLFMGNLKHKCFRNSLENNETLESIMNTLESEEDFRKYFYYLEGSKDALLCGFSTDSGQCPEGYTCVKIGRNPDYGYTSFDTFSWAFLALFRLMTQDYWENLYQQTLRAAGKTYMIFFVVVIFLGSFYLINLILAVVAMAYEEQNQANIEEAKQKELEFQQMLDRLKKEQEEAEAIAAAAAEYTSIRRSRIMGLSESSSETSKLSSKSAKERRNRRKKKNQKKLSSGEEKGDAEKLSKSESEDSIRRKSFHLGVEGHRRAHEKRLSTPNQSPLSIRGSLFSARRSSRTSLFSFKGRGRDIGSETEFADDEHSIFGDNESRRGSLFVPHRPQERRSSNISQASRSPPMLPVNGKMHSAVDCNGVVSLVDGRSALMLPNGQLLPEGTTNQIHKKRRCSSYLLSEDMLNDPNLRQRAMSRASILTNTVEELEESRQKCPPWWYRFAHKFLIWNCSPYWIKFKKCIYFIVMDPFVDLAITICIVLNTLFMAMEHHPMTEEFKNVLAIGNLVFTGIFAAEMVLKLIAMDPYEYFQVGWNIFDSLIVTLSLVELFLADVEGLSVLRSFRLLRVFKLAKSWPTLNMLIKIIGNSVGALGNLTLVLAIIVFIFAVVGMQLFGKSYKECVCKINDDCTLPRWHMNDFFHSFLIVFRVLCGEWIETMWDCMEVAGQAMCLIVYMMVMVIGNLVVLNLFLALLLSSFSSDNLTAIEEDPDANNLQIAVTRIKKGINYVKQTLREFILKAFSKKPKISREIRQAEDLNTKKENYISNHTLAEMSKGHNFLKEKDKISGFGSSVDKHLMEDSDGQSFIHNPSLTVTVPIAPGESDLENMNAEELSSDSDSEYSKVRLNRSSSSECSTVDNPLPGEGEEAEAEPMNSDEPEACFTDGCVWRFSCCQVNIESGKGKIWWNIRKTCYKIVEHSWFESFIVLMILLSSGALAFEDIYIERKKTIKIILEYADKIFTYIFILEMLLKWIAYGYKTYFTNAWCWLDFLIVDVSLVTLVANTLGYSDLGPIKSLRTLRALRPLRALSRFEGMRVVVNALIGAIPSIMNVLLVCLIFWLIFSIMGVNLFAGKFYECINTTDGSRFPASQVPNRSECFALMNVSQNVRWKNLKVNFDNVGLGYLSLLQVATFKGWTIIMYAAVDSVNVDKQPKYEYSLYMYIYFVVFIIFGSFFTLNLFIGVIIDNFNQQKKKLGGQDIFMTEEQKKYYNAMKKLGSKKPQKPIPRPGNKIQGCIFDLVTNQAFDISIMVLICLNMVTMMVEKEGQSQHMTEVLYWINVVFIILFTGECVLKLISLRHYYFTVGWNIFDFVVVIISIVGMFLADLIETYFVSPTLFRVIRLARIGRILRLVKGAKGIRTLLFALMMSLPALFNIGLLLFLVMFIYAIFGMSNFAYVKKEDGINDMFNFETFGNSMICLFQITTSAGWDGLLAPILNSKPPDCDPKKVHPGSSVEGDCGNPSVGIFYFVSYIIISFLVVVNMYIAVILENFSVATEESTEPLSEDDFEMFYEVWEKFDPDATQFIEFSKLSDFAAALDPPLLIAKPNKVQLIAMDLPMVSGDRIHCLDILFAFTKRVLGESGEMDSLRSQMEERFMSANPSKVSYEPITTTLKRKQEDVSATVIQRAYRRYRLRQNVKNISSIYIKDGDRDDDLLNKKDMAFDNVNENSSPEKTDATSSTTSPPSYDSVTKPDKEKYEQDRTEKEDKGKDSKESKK

Row | Structure (SMILES) | IC50
1 | NC(=O)c1nc(N)nc(-c2ccc(Oc3ccc(C(F)(F)F)cn3)cc2)n1 [Compound 13, 4-amino-6-(4-((5-(trifluoromethyl)pyridin-2-yl)oxy)phenyl)-1,3,5-triazine-2-carboxamide] | > 20 µM
2 | NC(=O)c1nc(N[C@H]2CCNC2=O)nc(N2CC(Oc3ccc(C(F)(F)F)cn3)C2)n1 [Compound 14, (S)-4-((2-oxopyrrolidin-3-yl)amino)-6-(3-((5-(trifluoromethyl)pyridin-2-yl)oxy)azetidin-1-yl)-1,3,5-triazine-2-carboxamide] | > 20 µM
3 | NC(=O)c1nc(N)nc(N2CC(Oc3ccc(C(F)(F)F)cn3)C2)n1 [Compound 11, 4-amino-6-(3-((5-(trifluoromethyl)pyridin-2-yl)oxy)azetidin-1-yl)-1,3,5-triazine-2-carboxamide] | > 20 µM
4 | N#Cc1nc(N[C@H]2CCNC2=O)nc(-c2ccc(Oc3ccc(OC(F)(F)F)cc3)cc2)n1 [Compound 1, (S)-4-((2-oxopyrrolidin-3-yl)amino)-6-(4-(4-(trifluoromethoxy)phenoxy)phenyl)-1,3,5-triazine-2-carbonitrile] | 2.25 ± 0.37 µM
5 | NC(=O)c1nc(-c2ccc(Oc3ccc(OC(F)(F)F)cc3)cc2)nc(N2CCOCC2)n1 [Compound 9, 4-morpholino-6-(4-(4-(trifluoromethoxy)phenoxy)phenyl)-1,3,5-triazine-2-carboxamide] | 0.596 ± 0.102 µM
6 | N#Cc1nc(-c2ccc(Oc3ccc(C(F)(F)F)cn3)cc2)nc(N2CCOCC2)n1 [Compound 8, 4-morpholino-6-(4-((5-(trifluoromethyl)pyridin-2-yl)oxy)phenyl)-1,3,5-triazine-2-carbonitrile] | 8.09 ± 0.959 µM
7 | CCN(c1nc(C(N)=O)nc(-c2ccc(Oc3ccc(C(F)(F)F)cn3)cc2)n1)C(C)C [Compound 5, 4-(ethyl(isopropyl)amino)-6-(4-((5-(trifluoromethyl)pyridin-2-yl)oxy)phenyl)-1,3,5-triazine-2-carboxamide] | 0.645 ± 0.14 µM
8 | NC(=O)c1nc(N[C@H]2CCNC2=O)nc(-c2ccc(Oc3ccc(OC(F)(F)F)cc3)cc2)n1 [Compound 2, (S)-4-((2-oxopyrrolidin-3-yl)amino)-6-(4-(4-(trifluoromethoxy)phenoxy)phenyl)-1,3,5-triazine-2-carboxamide] | 0.326 ± 0.116 µM
9 | NC(=O)c1nc(-c2ccc(Oc3ccc(C(F)(F)F)cn3)cc2)nc(N2CCOCC2)n1 [Compound 10, 4-morpholino-6-(4-((5-(trifluoromethyl)pyridin-2-yl)oxy)phenyl)-1,3,5-triazine-2-carboxamide] | 0.353 ± 0.1 µM
10 | CCN(c1nc(C(N)=O)nc(-c2ccc(Oc3ccc(OC(F)(F)F)cc3)cc2)n1)C(C)C [Compound 4, 4-(ethyl(isopropyl)amino)-6-(4-(4-(trifluoromethoxy)phenoxy)phenyl)-1,3,5-triazine-2-carboxamide] | > 20 µM
11 | NC(=O)c1nc(NCCO)nc(-c2ccc(Oc3ccc(C(F)(F)F)cn3)cc2)n1 [Compound 12, 4-((2-hydroxyethyl)amino)-6-(4-((5-(trifluoromethyl)pyridin-2-yl)oxy)phenyl)-1,3,5-triazine-2-carboxamide] | 0.243 ± 0.125 µM
